Source: ChEMBL document CHEMBL3244109, “Synthesis of cyclohexyl carbocyclic puromycin and its inhibition of protein synthesis” (J Med Chem, 1977)
Active and inactive are the calls of the source. No cut-off for these calls is given here.

Assay: Inhibition of rate of poly(U,C) (unknown origin)-directed L-[14C]poly-(phenylalanine) formation in Escherichia coli cell-free ribosome system at 10^-3 M by liquid scintillation counting
Type: functional

Row | Structure (SMILES) | inhibition
1 | COc1ccc(C[C@H](N)C(=O)N[C@H]2CC[C@H](n3cnc4c(N(C)C)ncnc43)[C@H]2O)cc1 | inactive
2 | COc1ccc(C[C@H](N)C(=O)N[C@H]2CCC[C@@H](n3cnc4c(N(C)C)ncnc43)[C@@H]2O)cc1 | inactive
3 | COc1ccc(C[C@H](N)C(=O)N[C@@H]2CCC[C@H](n3cnc4c(N(C)C)ncnc43)[C@H]2O)cc1 | inactive
4 | COc1ccc(C[C@H](N)C(=O)N[C@H]2CC[C@@H](n3cnc4c(N(C)C)ncnc43)[C@@H]2O)cc1 | inactive
5 | COc1ccc(C[C@H](N)C(=O)N[C@@H]2CC[C@H](n3cnc4c(N(C)C)ncnc43)[C@H]2O)cc1 | inactive
